Measurements reported in PubChem BioAssay AID850 (SRMLSC, 2007).
Active and inactive are the calls of the source. The rule behind the calls is not given here.

How the values were obtained:
[1] = concentration-response yeast growth inhibition under permissive conditions, counter-assay for yeast lifespan-shortening chemical project (AID 850); details: Saccharomyces cerevisiae growth inhibition, permissive control, measured here: maximum growth inhibition, stronger effect = higher value;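 note: growth read as optical density after one day of incubation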
[2] = test system: Saccharomyces cerevisiae growth inhibition, permissive control; experiment: as above

For `Clc1cccc(CN2COc3c(cc(Cl)c4cccnc34)C2)c1`, the inhibition ([1]; at 50 µM) was 101% and the IC50 [2] was 6.88 µM.

`C=CCC1c2cccc(C(=O)O)c2C(=O)N1c1cccc(C)c1` (configuration not stated) gave an inhibition ([1]; at 25 µM) of 44.4% and an IC50 [2] of 49.7 µM.

For `CCS(=O)(=O)n1nc(-c2ccc(Cl)cc2)nc1SCc1ccccc1`, the inhibition ([1]; at 50 µM) was 15% and the IC50 [2] was > 100 µM (inactive).

In the case of `O=c1c(-c2ccc(Cl)cc2)[n+]([O-])c2ccccc2n1O`, the inhibition ([1]; at 25 µM) is reported as 99.8% and the IC50 [2] is reported as 7.82 µM.

For `Oc1ccc(Cl)cc1Cc1cc(Cl)ccc1O`, the inhibition ([1]; at 50 µM) was 99% and the IC50 [2] was 25.8 µM.

With `O=C(CSC1=NCCS1)N1CCN(c2ccc(Cl)cc2)CC1` the inhibition ([1]; at 50 µM) was 20.7% and the IC50 [2] was > 100 µM (inactive).

`O=S(=O)(NC1CC2CCC1C2)c1ccc(Br)s1` (configuration not stated) showed an inhibition ([1]; at 12.5 µM) of 99% and an IC50 [2] of 1.28 µM.

`CCn1c2ccc(C)cc2c2nc3cc(C(=O)O)ccc3nc21` gave an inhibition ([1]; at 50 µM) of 75% and an IC50 [2] of 23.9 µM.

For `Cc1[nH]n(-c2ccccc2)c(=O)c1/C=N/Nc1nncc(-c2ccccc2)n1`, the inhibition ([1]; at 50 µM) was 98.7% and the IC50 [2] was 20.7 µM.

In the case of `COc1cc(/C=C2\C(=O)ON=C2c2ccccc2)cc(OC)c1OC`, the inhibition ([1]; at 0.781 µM) is reported as -2.57% and the IC50 [2] is reported as > 100 µM (inactive).

With `Cc1ccc(-c2cc(-c3ccccc3Cl)[nH]n2)c(O)c1` the inhibition ([1]; at 0.781 µM) was 16.4% and the IC50 [2] was > 100 µM (inactive).

Compound `NNC(=O)c1cccc(COc2ccc3c(c2)CCC3)c1` has an inhibition ([1]; at 50 µM) of 71% and an IC50 [2] of 33.3 µM.

With `Cc1ccc(C(=O)CSC2=NC(N)=C(C#N)C3(CCCCC3)C2C(N)=O)cc1` (configuration not stated) the inhibition ([1]; at 1.563 µM) was 18.2% and the IC50 [2] was > 100 µM (inactive).

For `Cc1c(C=O)c2ccccn2c1C(=O)c1ccncc1`, the inhibition ([1]; at 50 µM) was 10.7% and the IC50 [2] was > 100 µM (inactive).

With `O/N=C/c1cc(Cl)ccc1OCc1cccc2ccccc12` the inhibition ([1]; at 0.391 µM) was 11.2% and the IC50 [2] was > 100 µM (inactive).

Compound `CN(C)CCNC=C(C(=O)Nc1ccc(Cl)cc1Cl)C(=O)Nc1ccc(Cl)cc1Cl` has an inhibition ([1]; at 25 µM) of 101% and an IC50 [2] of 18.6 µM.

`Cc1ccc(C(=O)O)cc1N=Cc1cc(Br)cc(Br)c1O` showed an inhibition ([1]; at 50 µM) of 97.1% and an IC50 [2] of 6.04 µM.

`Cc1ccnn2cc3c(=O)n(C)c(=O)n(C)c3c12` gave an inhibition ([1]; at 50 µM) of 64.1% and an IC50 [2] of 37.6 µM.

`O=C1OCC(CO)(CO)N=C1NNc1ccccc1Cl` showed an inhibition ([1]; at 25 µM) of 98.4% and an IC50 [2] of 3.49 µM.

With `COc1ccc(-c2cc(-c3ccccc3O)[nH]n2)cc1` the inhibition ([1]; at 1.563 µM) was 3.65% and the IC50 [2] was > 100 µM (inactive).

With `Cc1ccc(COc2ccc(Br)cc2/C=N/O)cc1` the inhibition ([1]; at 0.098 µM) was -1.78% and the IC50 [2] was > 100 µM (inactive).

For `Cc1cc(C)nc(/N=c2/ssnc2Cl)c1`, the inhibition ([1]; at 6.25 µM) was 29.2% and the IC50 [2] was > 100 µM (inactive).

Compound `Oc1ccc(/C=C/c2nc(-c3ccccc3O)n(-c3ccccc3)n2)cc1` has an inhibition ([1]; at 50 µM) of 54.3% and an IC50 [2] of 47.1 µM.

For `CN(c1ccc(O)cc1)c1nc(-c2ccccc2)cs1`, the inhibition ([1]; at 0.781 µM) was 9.5% and the IC50 [2] was > 100 µM (inactive).

With `CC1Cc2ccccc2N1C(=O)CSC1=NCCS1` (configuration not stated) the inhibition ([1]; at 0.781 µM) was 16.7% and the IC50 [2] was > 100 µM (inactive).

In the case of `O=c1[nH][nH]cc1C=Nc1ccccc1O`, the inhibition ([1]; at 1.563 µM) is reported as 12.5% and the IC50 [2] is reported as > 100 µM (inactive).

Work on `CC(Oc1ccc2ccccc2c1)C(=O)NNC(=S)NC(=O)c1ccco1` (configuration not stated) yielded an inhibition ([1]; at 50 µM) of 98.6% and an IC50 [2] of 11.3 µM.

`COc1ccc(C(=O)NC(=S)NNC(=O)c2cnccn2)cc1` gave an inhibition ([1]; at 50 µM) of 71.2% and an IC50 [2] of 14.2 µM.

With `CCc1ccc(S(=O)(=O)NCCc2cn3ccsc3n2)s1` the inhibition ([1]; at 25 µM) was 10.4% and the IC50 [2] was > 100 µM (inactive).

For `CSC1=NSC2=NC(=O)/C(=C\c3coc4ccccc4c3=O)C(=N)N12`, the inhibition ([1]; at 50 µM) was 19.2% and the IC50 [2] was > 100 µM (inactive).

In the case of `c1cn2cc(-c3ccc4c(c3)OCO4)nc2s1`, the inhibition ([1]; at 50 µM) is reported as 27.3% and the IC50 [2] is reported as > 100 µM (inactive).

For `Cc1nc(Cl)c2oc3ccccc3c2n1`, the inhibition ([1]; at 50 µM) was 15.8% and the IC50 [2] was > 100 µM (inactive).

For `O=C1c2ccccc2C(=O)N1Cc1ccco1`, the inhibition ([1]; at 25 µM) was 8.88% and the IC50 [2] was > 100 µM (inactive).

With `CC(=O)Oc1ccc(N2C(=O)C3C(C2=O)C2(C)C=CC3(C)O2)cc1` (configuration not stated) the inhibition ([1]; at 0.195 µM) was 3.93% and the IC50 [2] was > 100 µM (inactive).

With `Cc1cccc(/C(N)=N/OC(=O)c2ccc(F)cc2)c1` the inhibition ([1]; at 50 µM) was 23.4% and the IC50 [2] was > 100 µM (inactive).

With `O=C(Nc1nnc(-c2ccc(F)cc2)o1)c1cc(Cl)sc1Cl` the inhibition ([1]; at 50 µM) was 81.8% and the IC50 [2] was 36.8 µM.

In the case of `Cc1c(C(=O)O)cccc1-c1ccc(/C=N/Nc2ccc(Br)cc2)o1`, the inhibition ([1]; at 50 µM) is reported as 95.6% and the IC50 [2] is reported as 13.1 µM.

In the case of `Oc1c(CN2CCCCC2)cc(Br)c2cccnc12`, the inhibition ([1]; at 50 µM) is reported as 99.8% and the IC50 [2] is reported as 7.22 µM.

For `COc1ccc(/C(C)=N/NC(=O)c2ccc(CSc3cccc4cccnc34)cc2)cc1OC`, the inhibition ([1]; at 6.25 µM) was 12.5% and the IC50 [2] was > 100 µM (inactive).

For `COc1ccc(NCc2nc3ccccc3n2CCOc2ccc(C)cc2)cc1`, the inhibition ([1]; at 50 µM) was 52.7% and the IC50 [2] was 42.2 µM.

With `CC1=CC(=O)C=C(C)C1=NOS(=O)(=O)c1ccccc1` the inhibition ([1]; at 12.5 µM) was 62.4% and the IC50 [2] was 26.4 µM.
